Assay results reported in ChEMBL document CHEMBL4888484, “Replenishing the malaria drug discovery pipeline: Screening and hit evaluation of the MMV Hit Generation Library 1 (HGL1) against asexual blood stage Plasmodium falciparum ,using a nano luciferase reporter read-out” (2022).

Legend:
Plasmodium falciparum [1] = test: Hit confirmation in dose-response curve in NF54 nanoGlo assay, at 72h; format: functional, organism-based, Erythrocyte; set-up: timepoint 72 hour; details: Plasmodium falciparum, NF54, Erythrocyte, 72 h
Plasmodium falciparum [2] = test: Hit confirmation in dose-response curve in NF54 pLDH assay, at 72h; format: functional, organism-based; set-up: timepoint 72 hour; details: NF54, Erythrocyte
Plasmodium falciparum [3] = test: Hit confirmation in dose-response curve in Dd2 pLDH assay, at 72h; format: functional, organism-based; set-up: timepoint 72 hour; details: Dd2, Erythrocyte
Plasmodium falciparum [4] = test: Hit confirmation in dose-response curve in NF54 nanoGlo assay, at 12h; format: functional, organism-based, Erythrocyte; set-up: timepoint 12 hour; details: Plasmodium falciparum, NF54, Erythrocyte, 12 h
[5] = Hit confirmation in dose-response curve in HepG2 cytotoxicity assay, at 72h; format: toxicity, cell-based; set-up: timepoint 72 hour; details: human, HepG2 cells

Row | IC50 (Plasmodium falciparum [1]) | IC50 (Plasmodium falciparum [2]) | IC50 (Plasmodium falciparum [3]) | IC50 (Plasmodium falciparum [4]) | SMILES | IC50 at 72 h [5]
1 | 1.82 µM | 5.62 µM | 3.24 µM | 4.57 µM | O=S(=O)(Nc1cccc2cccnc12)c1cccs1 | 10.7 µM
2 | 2.57 µM | 2.75 µM | 4.68 µM | > 10 µM | Cc1ccccc1C(=O)N(Cc1cccc(F)c1)c1ccc(CC(=O)NCCN2CCCCC2)cc1 | > 10 µM
3 | 0.00832 µM | 0.0126 µM | > 10 µM | 9.55 µM | Cc1nc(C(=O)Nc2[nH]c(=O)ncc2F)c(-c2ccccc2)o1 | > 10 µM
4 | 2.29 µM | 5.62 µM | 4.07 µM | 7.94 µM | Cc1noc(Cl)c1CC(=O)N1CCCC(C)(C)CC1 | > 10 µM
5 | 8.13 µM | > 10 µM | > 10 µM | > 10 µM | Cc1[nH]c2ncnc(NC(=O)c3cccc(-n4ccnn4)c3)c2c1C | > 10 µM
6 | 2.63 µM | 10.7 µM | 6.46 µM | 2.75 µM | Cc1oc2ncn(CCN3CCCC3)c(=O)c2c1C(=O)Nc1ccc(C#N)cc1 | > 10 µM
7 | 3.8 µM | 2.24 µM | 4.9 µM | > 10 µM | O=C(N[C@@H](CN1CCCC1)c1ccccc1)N1CCC(c2ccn[nH]2)CC1 | > 10 µM
8 | 2.63 µM | 6.17 µM | 3.8 µM | 7.24 µM | NC(=O)c1ccc(C(F)(F)F)n(C[C@H](O)c2cc(Cl)ccc2Cl)c1=O | > 10 µM
9 | 1.66 µM | 4.27 µM | 3.09 µM | > 10 µM | Cc1ccc(C(=O)N(Cc2cccc(F)c2)c2ccc(CC(=O)N[C@@H](C)c3ccccc3)cc2)cc1 | > 10 µM
10 | 0.49 µM | 0.0871 µM | > 10 µM | > 10 µM | CC1(C)CCC(Nc2ccc(C(N)=O)nn2)CC1 | > 10 µM
11 | 0.00617 µM | 0.0105 µM | > 10 µM | 1.95 µM | O=C(Nc1[nH]c(=O)ncc1F)c1cccc2ccccc12 | > 10 µM
12 | 1.38 µM | 2.4 µM | 2.19 µM | 7.94 µM | Cc1cc(N(C)CCC2CC2)nc([C@H](C)N(C)CCC2CC2)n1 | > 10 µM
13 | 1.78 µM | 2.24 µM | 1.58 µM | 3.24 µM | CCCOc1cccc2c(NC3CCN(CCOC)CC3)ccnc12 | > 10 µM
14 | 2.63 µM | 3.55 µM | 2.63 µM | 7.08 µM | CCCN1CCC(NCc2ccc(-c3cccc(Cl)c3Cl)o2)CC1 | > 10 µM
15 | 3.24 µM | > 10 µM | > 10 µM | 5.89 µM | CCN(CC)C(=O)c1cnc2snc(C)c2c1N1CCC(C(=O)Nc2c(C)cc(C)cc2C)CC1 | > 10 µM
16 | 2.95 µM | 8.32 µM | 5.75 µM | > 10 µM | Cc1ccc(C)c(-n2cnc(=O)n2[C@H]2CCN(C3CC3)C2=O)c1 | > 10 µM
17 | 3.09 µM | 7.24 µM | 3.09 µM | > 10 µM | CC(C(=O)Nc1nccs1)N1CCCC(c2ccn[nH]2)C1 (stereo not given) | > 10 µM
18 | 2.69 µM | 8.13 µM | 3.39 µM | > 10 µM | Cc1ccc(Cn2c(=O)c(C(=O)NCc3ccc4c(c3)OCO4)nn(-c3ccc(C(C)C)cc3)c2=O)cc1 | > 10 µM
19 | 0.00589 µM | 0.0112 µM | > 10 µM | > 10 µM | O=C(Nc1[nH]c(=O)ncc1F)c1coc(-c2ccccc2)n1 | > 10 µM
20 | 2 µM | 1.38 µM | 2.29 µM | 6.76 µM | COC1CCCC1NC(=O)Nc1ncc(Br)cc1C (stereo not given) | > 10 µM
21 | 2.82 µM | 3.8 µM | 3.24 µM | > 10 µM | CC12CN(S(=O)(=O)c3ccc4c(c3)OCCO4)C3(C(=O)OCc4ccccc4)CC1CCC23C (stereo not given) | > 10 µM
22 | 2.29 µM | 3.89 µM | 3.63 µM | 2.95 µM | OC(CNC1CCCNc2ccccc21)c1ccc(Cl)s1 (stereo not given) | > 10 µM
23 | 3.55 µM | 7.76 µM | 4.47 µM | 9.77 µM | CCNC(=O)c1csc(COc2ccc3c(c2)[C@H](c2ccc(C)cc2)N(C(=O)CC(C)C)CC3)n1 | > 10 µM
24 | 8.91 µM | 2.75 µM | 10.5 µM | > 10 µM | Cc1ccc(C2c3ccsc3CCN2CCC(=O)N2CCN(C(=O)Cc3cccs3)C(C)C2)cc1 (stereo not given) | > 10 µM
25 | 0.00589 µM | 0.01 µM | > 10 µM | 7.76 µM | COc1cc(C(=O)Nc2[nH]c(=O)ncc2F)ccc1Cl | > 10 µM

Row | IC50 (Plasmodium falciparum [1]) | IC50 (Plasmodium falciparum [2]) | IC50 (Plasmodium falciparum [3]) | IC50 (Plasmodium falciparum [4]) | SMILES | IC50 at 72 h [5]
26 | 2.82 µM | 11.5 µM | 9.77 µM | 6.92 µM | Cc1nsc2ncc(C(=O)N3CCC(C)CC3)c(N3CCC(C(=O)Nc4cc(F)ccc4F)CC3)c12 | > 10 µM
27 | 1.41 µM | 3.98 µM | 3.16 µM | > 10 µM | COc1ccccc1Cn1cnc2c1c(=O)n(C1CCCCC1)c(=O)n2-c1ccccc1Cl | > 10 µM
28 | 1.58 µM | > 10 µM | > 10 µM | 0.525 µM | Cc1nc2cc(NC(=O)[C@@]3(C)CCCN(C(=O)c4ccccc4)C3)ccc2o1 | > 10 µM
29 | 1.51 µM | 4.37 µM | 4.17 µM | 4.07 µM | CC[C@@]1(C)CCCN(C(=O)Cc2c(C)noc2Cl)C1 | > 10 µM
30 | > 10 µM | > 10 µM | > 10 µM | > 10 µM | CN(Cc1ccsc1)C(=O)c1cc2ccccc2[nH]1 | > 10 µM
31 | 1.86 µM | 3.09 µM | 2.82 µM | 2.45 µM | Cc1cccc2ncnc(N(C)[C@@H](C)Cc3ccc(O)cc3)c12 | > 10 µM
32 | 1.74 µM | 5.5 µM | 4.27 µM | > 10 µM | Cc1ccccc1Cn1cnc2c1c(=O)n(C1CCCCC1)c(=O)n2-c1ccccc1Cl | > 10 µM
33 | > 10 µM | > 10 µM | > 10 µM | 1.7 µM | CCn1c(-c2cc(NC(=O)c3ccc4c(c3)OCO4)[nH]n2)cc2ccc(OC)cc21 | > 10 µM
34 | 1.95 µM | 3.02 µM | 2.75 µM | > 10 µM | O=S(=O)(c1cccc(Cl)c1)N1CCc2nc(N3CCCCC3)nc(Oc3ccccc3)c2C1 | > 10 µM
35 | 0.00191 µM | 0.00166 µM | > 10 µM | 0.501 µM | O=C(Nc1[nH]c(=O)ncc1F)c1cc(F)c(F)cc1Br | > 10 µM
36 | 1.74 µM | 2.24 µM | 2.4 µM | 3.39 µM | Cc1cc(C(=O)N[C@@H](C)c2nc(-c3cccnc3)cs2)cc(O)n1 | > 10 µM
37 | 3.63 µM | 7.94 µM | > 10 µM | 6.92 µM | Cc1ccc(NC(=O)N2CCCN(c3ccc(NC(=O)c4cccs4)cc3C(=O)NCc3ccc(F)cc3)CC2)cc1 | > 10 µM
38 | 3.55 µM | > 10 µM | 7.59 µM | 5.75 µM | COc1ccc(-n2ncc(Oc3cccc(C)c3)c(Nc3cccc(C(=O)NCc4ccc(F)cc4)c3)c2=O)cc1 | > 10 µM
39 | 0.00204 µM | 0.00331 µM | > 10 µM | 0.49 µM | CC1CC(C(=O)Nc2[nH]c(=O)ncc2F)CC(C)(C)C1 (stereo not given) | > 10 µM
40 | 0.457 µM | 3.63 µM | 3.16 µM | > 10 µM | Cc1cc(NC(=O)c2ccccn2)n(-c2nc3ccccc3o2)n1 | > 10 µM
41 | 1.58 µM | > 10 µM | > 10 µM | 0.513 µM | O=C(c1ccc2c(c1)OCO2)N1CCn2c1nc1ccccc12 | > 10 µM
42 | 3.02 µM | 10 µM | 9.55 µM | > 10 µM | COc1ccccc1-n1c(=O)n(C2CCCC2)c(=O)c2c1ncn2Cc1ccccc1Cl | > 10 µM
43 | 5.89 µM | > 10 µM | > 10 µM | 1.35 µM | CCOC(=O)c1cc(F)cc(S(=O)(=O)Nc2ccnc3ncnn23)c1 | > 10 µM
44 | 3.24 µM | 5.25 µM | 7.94 µM | > 10 µM | O=C(Cc1ccc(N(Cc2cccc(F)c2)C(=O)c2cccc(F)c2)cc1)NCCN1CCCCC1 | > 10 µM
45 | 0.00195 µM | 0.00214 µM | > 10 µM | 0.955 µM | CC(C)c1nc(C(=O)Nc2[nH]c(=O)ncc2F)cs1 | > 10 µM
46 | 1.62 µM | 1.82 µM | 1.51 µM | 2.95 µM | CC[C@H](O)CN1CCC(Nc2ncnc3cc(Cl)ccc23)CC1 | > 10 µM
47 | 5.01 µM | 7.24 µM | > 10 µM | > 10 µM | CN(C)c1noc(CN2CCc3ccc(F)cc3C2)n1 | > 10 µM
48 | 3.8 µM | 8.13 µM | 2.88 µM | > 10 µM | Cc1noc(NCc2ccc(Cl)cc2)n1 | > 10 µM
49 | 2.75 µM | 6.92 µM | > 10 µM | 1.32 µM | O=C(c1ccccc1F)N(Cc1nccn1Cc1c(F)cccc1Cl)C1CC1 | > 10 µM

Row | SMILES | IC50 (Plasmodium falciparum [1]) | IC50 (Plasmodium falciparum [2]) | IC50 (Plasmodium falciparum [3]) | IC50 (Plasmodium falciparum [4]) | IC50 at 72 h [5]
50 | O=C(c1ccccc1)c1cc(Cl)ccc1NC(=O)[C@H]1CC(=O)N(c2ccc(F)cc2)C1 | 2.24 µM | 3.39 µM | 4.17 µM | 4.37 µM | > 10 µM
